Reference: ChEMBL document CHEMBL1201862, “PubChem BioAssay data set” (2004)
Calls of active or inactive are those of the source.

Experiments:
Hexokinase-1 = biological target: T1, Hexokinase-1 (Homo sapiens, UniProt P19367); assay: HK1 enzyme activation by HKDC1 hits – biochemical, selectivity assay for HKDC1 activator project, dose response (AID 504762); assay type: functional
T1 sequence (P19367 whole entry): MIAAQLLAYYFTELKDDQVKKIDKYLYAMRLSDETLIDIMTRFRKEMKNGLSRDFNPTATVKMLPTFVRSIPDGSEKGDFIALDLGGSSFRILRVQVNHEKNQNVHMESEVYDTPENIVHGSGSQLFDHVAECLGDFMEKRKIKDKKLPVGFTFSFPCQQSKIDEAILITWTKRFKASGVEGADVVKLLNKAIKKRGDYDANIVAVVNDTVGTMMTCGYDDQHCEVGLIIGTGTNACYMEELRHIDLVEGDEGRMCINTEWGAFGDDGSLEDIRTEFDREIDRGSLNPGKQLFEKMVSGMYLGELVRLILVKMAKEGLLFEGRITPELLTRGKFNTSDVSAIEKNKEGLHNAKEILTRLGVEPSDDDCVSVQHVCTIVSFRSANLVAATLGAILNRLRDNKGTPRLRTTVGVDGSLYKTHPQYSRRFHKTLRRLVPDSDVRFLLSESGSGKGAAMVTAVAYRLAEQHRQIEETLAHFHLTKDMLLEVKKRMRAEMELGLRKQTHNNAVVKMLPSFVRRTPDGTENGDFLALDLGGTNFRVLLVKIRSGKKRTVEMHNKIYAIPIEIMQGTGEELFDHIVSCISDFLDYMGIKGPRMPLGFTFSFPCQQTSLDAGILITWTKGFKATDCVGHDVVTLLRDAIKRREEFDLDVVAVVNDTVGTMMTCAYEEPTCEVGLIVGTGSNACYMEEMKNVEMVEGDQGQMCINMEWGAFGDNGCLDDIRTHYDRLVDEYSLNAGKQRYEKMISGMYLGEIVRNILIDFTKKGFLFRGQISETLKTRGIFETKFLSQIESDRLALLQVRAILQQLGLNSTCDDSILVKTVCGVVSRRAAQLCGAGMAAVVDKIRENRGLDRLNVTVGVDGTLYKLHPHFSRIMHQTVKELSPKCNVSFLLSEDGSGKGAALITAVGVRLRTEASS

INS1 = assay: INS-1E survival protection against cytokine death – cell-based, luminescence, retest, dose response (AID 449756); assay type: functional; conditions: Rattus norvegicus;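 further: cell death triggered by IL-1 beta plus TNF-alpha plus IFN-gamma mixture; protective hits raise ATP signal compared with cytokine alone wells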
Hexokinase HKDC1 = biological target: T2, Hexokinase HKDC1 (Homo sapiens, UniProt Q2TB90); assay: activation of HKDC1 glucose phosphorylation – biochemical, W721R variant, dose response (AID 504730); assay type: functional
T2 sequence (Q2TB90 whole entry): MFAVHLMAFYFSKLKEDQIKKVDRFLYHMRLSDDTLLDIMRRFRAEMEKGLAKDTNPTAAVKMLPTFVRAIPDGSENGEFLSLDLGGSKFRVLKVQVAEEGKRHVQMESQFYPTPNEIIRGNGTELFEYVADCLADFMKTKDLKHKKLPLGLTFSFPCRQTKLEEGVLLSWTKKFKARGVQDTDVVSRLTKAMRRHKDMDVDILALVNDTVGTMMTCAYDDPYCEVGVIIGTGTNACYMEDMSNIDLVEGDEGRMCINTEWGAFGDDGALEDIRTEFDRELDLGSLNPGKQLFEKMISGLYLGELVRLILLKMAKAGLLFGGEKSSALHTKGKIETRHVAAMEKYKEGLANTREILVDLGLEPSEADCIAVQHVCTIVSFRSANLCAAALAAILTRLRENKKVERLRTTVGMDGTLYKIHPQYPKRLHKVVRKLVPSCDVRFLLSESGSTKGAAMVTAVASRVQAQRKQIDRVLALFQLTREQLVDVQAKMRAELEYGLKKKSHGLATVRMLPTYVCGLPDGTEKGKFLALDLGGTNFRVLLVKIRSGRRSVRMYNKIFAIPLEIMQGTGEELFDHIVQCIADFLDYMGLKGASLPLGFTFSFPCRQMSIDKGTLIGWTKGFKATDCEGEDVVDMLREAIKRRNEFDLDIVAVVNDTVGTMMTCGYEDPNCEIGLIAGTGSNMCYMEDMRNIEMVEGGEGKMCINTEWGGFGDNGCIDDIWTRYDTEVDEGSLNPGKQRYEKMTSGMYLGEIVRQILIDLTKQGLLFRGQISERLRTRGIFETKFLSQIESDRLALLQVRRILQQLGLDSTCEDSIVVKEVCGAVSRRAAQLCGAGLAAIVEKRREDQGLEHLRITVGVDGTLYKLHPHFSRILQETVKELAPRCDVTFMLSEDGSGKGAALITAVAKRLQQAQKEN

[1] = Luminescence Cell-Based Dose Retest to Confirm Inhibitors of Cancer Stem Cells. [Related pubchem assays (depositor defined):AID2717, AID2721]; assay type: functional, Homo sapiens; conditions: Homo sapiens
Troponin, cardiac muscle = Troponin, cardiac muscle (Homo sapiens, UniProt P19429+P45379+P63316); assay: Fluorescence-based biochemical high throughput dose response assay for activators of the calcium sensitivity of cardiac Regulated Thin Filaments (RTF). [Related pubchem assays (depositor defined):AID493008, AID493018, AID504382, AID504383]; assay type: protein-complex assay
Cytochrome P450 2C9 = Cytochrome P450 2C9 (Homo sapiens, UniProt P11712)
[2] = off-target signal loss in HeLa-CEM21 co-culture – HeLa F-luc CTL cells, cherry-picked, counter-screen for HIV-1 Env fusion inhibitor project, dose response (AID 652040); assay type: functional, cell-based;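 further: potency for signal decrease marking cytotoxic or nonspecific inhibition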
[3] = HIV-1 AD8 envelope cell-cell fusion blockers – cherry-pick, dose response (AID 652062); assay type: functional, cell-based;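 further: luciferase signal from cell-cell fusion driven by HIV-1 clade B AD8 Env; potency is for inhibitors of fusion seen as a drop in luminescence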
X-box-binding protein 1 = X-box-binding protein 1 (Homo sapiens, UniProt P17861); assay type: functional, Cricetulus griseus;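 further: confirmatory dose-response counter-screen serving a CHOP assay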
[4] = biological target: T3, Heat shock factor protein 1 (Mus musculus, UniProt P38532); assay: decrease of HSF1-responsive luciferase luminescence – cell-based, NIH3T3, dose retest, confirmation (AID 2382); assay type: functional;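 further: NIH3T3 fibroblasts with HSF1-driven luciferase reporter stressed by proteasome inhibitor MG132; luminescence from HSF1-driven luciferase expression after 8 hours of MG132 stress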
T3 sequence (P38532 whole entry): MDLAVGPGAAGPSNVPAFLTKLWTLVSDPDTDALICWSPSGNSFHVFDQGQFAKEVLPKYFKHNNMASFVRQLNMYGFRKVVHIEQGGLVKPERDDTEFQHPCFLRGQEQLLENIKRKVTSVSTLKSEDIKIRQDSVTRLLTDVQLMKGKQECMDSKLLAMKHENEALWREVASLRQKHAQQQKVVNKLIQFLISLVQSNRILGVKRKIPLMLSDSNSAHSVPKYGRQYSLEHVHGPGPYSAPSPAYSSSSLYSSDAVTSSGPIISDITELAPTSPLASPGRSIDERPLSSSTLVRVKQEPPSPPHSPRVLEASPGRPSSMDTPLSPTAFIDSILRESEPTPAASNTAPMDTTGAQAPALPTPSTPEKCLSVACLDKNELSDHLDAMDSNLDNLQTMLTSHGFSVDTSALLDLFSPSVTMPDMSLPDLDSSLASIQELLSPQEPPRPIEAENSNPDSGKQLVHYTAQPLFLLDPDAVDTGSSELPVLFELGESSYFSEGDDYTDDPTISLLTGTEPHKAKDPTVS

[5] = blockers of HIV-1 ZM109 envelope-driven cell-cell fusion – HeLa effector, CEM target cells, luciferase, cherry-pick, dose response (AID 652058); assay type: functional, cell-based;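 further: luciferase signal from HIV-1 Env mediated cell-cell fusion of effector and target cells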
[6] = biological target: DNA damage-inducible transcript 3 protein (Mus musculus, UniProt P35639); assay type: functional, Cricetulus griseus
[7] = biological target: T4, Endoribonuclease toxin MazF (Escherichia coli K-12, UniProt P0AE70); assay: activation of MazEF endoribonuclease cleavage – biochemical, fluorescence, single-stranded RNA substrate, uHTS hits, dose response (AID 588481); assay type: functional
T4 sequence (P0AE70 whole entry): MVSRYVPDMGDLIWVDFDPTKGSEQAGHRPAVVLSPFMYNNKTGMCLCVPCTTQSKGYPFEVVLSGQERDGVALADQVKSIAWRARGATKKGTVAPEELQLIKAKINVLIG

[8] = blockers of HIV-1 envelope-mediated cell-cell fusion – cherry-pick, dose response (AID 652057); assay type: functional, cell-based
[9] = biological target: T4, Endoribonuclease toxin MazF; assay: substrate-only fluorescence increase artefacts – biochemical, single-stranded RNase substrate, counter-screen for MazEF activator project, dose response (AID 588502); assay type: functional
[10] = biological target: Peroxisome proliferator-activated receptor gamma/Nuclear receptor coactivator 3 (Homo sapiens, UniProt P37231); assay: TR-FRET dose response biochemical High Throughput Screening assay for agonists of the steroid receptor coactivator 3 (SRC-3) recruitment by the peroxisome proliferator-activated receptor gamma (PPAR gamma): non-selective agonists. [Related pubchem assays: 1301 (Confirmation screen.), 1048 (Primary screen.)]; assay type: functional
[11] = biological target: Peroxisome proliferator-activated receptor gamma/Nuclear receptor coactivator 2 (Homo sapiens, UniProt P37231); assay: (§1) TR-FRET dose response biochemical High Throughput Screening assay for agonists of the steroid receptor coactivator 2 (SRC-2) recruitment by the peroxisome proliferator-activated receptor gamma (PPAR gamma): non-selective agonists. [Related pubchem assays: 1297, 1032 ]; assay type: functional
[12] = biological target: Luciferin 4-monooxygenase (Photinus pyralis, UniProt P08659); assay: inhibition of purified Photinus pyralis luciferase – biochemical, luminescence, dose response (AID 1891)
[13] = biological target: DNA dC->dU-editing enzyme APOBEC-3G (Homo sapiens, UniProt Q9HC16); assay: Dose Response confirmation of small molecule APOBEC3G DNA Deaminase Inhibitors via a fluorescence-based single-stranded DNA deaminase assay. [Related pubchem assays (depositor defined):AID493012, AID493028]; assay type: functional
[14] = biological target: Peroxisome proliferator-activated receptor gamma/Nuclear receptor coactivator 1 (Homo sapiens, UniProt P37231); assay: as §1, with “1 (SRC-1)” for “2 (SRC-2)”, “assays (depositor defined):AID1300, AID1808, AID504735, AID631]” for “assays: 1297, 1032 ]”; assay type: protein assay
Coagulation factor XII = biological target: T5, Coagulation factor XII (Homo sapiens, UniProt P00748); assay type: functional;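 further: activated factor XIIa alpha cleaving a fluorogenic AMC peptide substrate; inhibitor potency from loss of enzyme activity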
T5 sequence (P00748 whole entry): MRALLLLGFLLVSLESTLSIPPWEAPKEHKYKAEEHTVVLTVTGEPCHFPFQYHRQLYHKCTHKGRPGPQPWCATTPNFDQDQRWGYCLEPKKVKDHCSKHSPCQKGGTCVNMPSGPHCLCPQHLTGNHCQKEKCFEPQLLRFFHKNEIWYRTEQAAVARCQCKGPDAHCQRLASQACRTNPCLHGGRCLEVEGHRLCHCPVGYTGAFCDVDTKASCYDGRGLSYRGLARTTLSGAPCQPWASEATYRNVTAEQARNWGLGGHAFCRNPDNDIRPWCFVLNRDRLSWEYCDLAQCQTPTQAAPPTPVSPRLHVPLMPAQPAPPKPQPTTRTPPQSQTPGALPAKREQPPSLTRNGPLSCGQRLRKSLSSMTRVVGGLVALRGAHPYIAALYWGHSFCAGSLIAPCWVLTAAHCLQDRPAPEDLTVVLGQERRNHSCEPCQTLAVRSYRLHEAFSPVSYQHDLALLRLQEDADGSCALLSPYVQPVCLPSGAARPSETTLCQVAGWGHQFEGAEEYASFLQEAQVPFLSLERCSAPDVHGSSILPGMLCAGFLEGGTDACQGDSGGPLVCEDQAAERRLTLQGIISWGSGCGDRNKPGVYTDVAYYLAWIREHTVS

[15] = biological target: T6, Rac GTPase-activating protein 1 (Homo sapiens, UniProt Q9H0H5); assay: blockers of MgcRacGAP-driven Rac1 GTP hydrolysis – biochemical, ADP Hunter fluorescence, primary and confirmatory, confirmation (AID 624330); assay type: functional
T6 sequence (Q9H0H5 whole entry): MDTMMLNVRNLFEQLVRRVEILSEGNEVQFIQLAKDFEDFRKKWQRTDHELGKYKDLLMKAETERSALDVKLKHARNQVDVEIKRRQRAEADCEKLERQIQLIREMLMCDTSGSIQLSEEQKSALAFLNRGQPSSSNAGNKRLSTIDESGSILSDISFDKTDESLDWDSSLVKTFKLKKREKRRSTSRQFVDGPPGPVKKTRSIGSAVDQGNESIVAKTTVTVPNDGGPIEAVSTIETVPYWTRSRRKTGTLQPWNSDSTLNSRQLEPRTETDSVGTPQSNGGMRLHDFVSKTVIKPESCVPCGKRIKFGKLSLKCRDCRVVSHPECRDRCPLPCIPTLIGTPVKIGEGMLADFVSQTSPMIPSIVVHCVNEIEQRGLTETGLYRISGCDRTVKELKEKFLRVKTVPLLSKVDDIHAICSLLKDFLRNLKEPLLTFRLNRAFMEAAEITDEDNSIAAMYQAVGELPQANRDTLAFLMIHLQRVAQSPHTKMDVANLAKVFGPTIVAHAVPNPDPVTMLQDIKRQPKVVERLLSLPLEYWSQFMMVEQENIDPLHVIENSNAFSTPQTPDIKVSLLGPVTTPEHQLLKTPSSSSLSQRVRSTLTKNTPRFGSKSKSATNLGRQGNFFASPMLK

Chain of Peroxisome proliferator-activated receptor gamma/Nuclear receptor coactivator 1 (P37231 whole entry): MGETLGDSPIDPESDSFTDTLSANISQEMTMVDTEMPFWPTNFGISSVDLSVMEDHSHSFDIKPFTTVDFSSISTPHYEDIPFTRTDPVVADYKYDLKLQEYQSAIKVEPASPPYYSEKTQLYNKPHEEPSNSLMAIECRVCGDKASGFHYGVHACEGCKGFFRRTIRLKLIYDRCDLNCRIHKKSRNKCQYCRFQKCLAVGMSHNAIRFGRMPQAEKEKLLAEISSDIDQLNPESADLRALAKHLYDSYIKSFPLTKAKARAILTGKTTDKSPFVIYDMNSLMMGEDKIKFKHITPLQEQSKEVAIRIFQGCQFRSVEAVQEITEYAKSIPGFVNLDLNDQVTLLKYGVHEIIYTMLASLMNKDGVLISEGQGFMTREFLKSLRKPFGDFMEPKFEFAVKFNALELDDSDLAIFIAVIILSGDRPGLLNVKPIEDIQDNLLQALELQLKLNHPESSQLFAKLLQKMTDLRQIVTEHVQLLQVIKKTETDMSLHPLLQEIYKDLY
Chain of Peroxisome proliferator-activated receptor gamma/Nuclear receptor coactivator 1 (Q15788 whole entry, further chain): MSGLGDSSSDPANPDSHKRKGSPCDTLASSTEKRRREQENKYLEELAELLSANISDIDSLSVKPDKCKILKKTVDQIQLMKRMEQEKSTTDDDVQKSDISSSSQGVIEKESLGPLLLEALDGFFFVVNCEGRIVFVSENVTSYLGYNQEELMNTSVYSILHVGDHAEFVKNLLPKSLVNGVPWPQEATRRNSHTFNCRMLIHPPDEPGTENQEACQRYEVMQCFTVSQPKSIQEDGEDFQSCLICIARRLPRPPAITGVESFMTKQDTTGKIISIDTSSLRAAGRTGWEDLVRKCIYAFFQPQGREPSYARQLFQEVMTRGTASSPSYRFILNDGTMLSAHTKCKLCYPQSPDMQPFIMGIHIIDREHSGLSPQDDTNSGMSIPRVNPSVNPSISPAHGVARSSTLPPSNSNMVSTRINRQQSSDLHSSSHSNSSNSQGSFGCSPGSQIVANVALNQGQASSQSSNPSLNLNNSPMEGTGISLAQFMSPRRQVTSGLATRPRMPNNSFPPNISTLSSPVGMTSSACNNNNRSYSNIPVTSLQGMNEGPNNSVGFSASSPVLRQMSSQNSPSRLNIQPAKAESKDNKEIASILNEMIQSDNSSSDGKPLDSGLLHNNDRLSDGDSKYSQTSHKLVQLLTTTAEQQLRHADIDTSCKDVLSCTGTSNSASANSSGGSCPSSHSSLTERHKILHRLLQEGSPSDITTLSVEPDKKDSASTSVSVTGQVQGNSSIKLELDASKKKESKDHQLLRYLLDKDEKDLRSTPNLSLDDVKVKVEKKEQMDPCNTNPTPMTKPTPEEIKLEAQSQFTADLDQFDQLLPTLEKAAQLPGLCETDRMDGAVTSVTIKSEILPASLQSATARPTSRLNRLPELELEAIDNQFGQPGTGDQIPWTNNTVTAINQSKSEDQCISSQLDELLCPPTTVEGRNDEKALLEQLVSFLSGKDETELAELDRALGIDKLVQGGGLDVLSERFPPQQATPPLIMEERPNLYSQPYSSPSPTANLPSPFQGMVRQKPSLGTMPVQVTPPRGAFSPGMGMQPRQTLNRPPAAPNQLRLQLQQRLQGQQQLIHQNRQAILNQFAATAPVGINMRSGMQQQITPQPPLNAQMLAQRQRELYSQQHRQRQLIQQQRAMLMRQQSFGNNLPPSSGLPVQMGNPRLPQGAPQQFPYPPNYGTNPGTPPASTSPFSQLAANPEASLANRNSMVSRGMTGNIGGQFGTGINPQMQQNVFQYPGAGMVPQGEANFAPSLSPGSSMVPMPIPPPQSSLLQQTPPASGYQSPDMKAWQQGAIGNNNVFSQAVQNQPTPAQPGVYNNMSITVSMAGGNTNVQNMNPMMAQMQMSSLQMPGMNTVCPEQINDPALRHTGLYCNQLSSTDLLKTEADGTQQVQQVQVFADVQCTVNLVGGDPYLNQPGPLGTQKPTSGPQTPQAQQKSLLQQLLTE
Chain of Peroxisome proliferator-activated receptor gamma/Nuclear receptor coactivator 3 (P37231 whole entry): as the sequence (P37231 whole entry) above
Chain of Peroxisome proliferator-activated receptor gamma/Nuclear receptor coactivator 3 (Q9Y6Q9 whole entry, further chain): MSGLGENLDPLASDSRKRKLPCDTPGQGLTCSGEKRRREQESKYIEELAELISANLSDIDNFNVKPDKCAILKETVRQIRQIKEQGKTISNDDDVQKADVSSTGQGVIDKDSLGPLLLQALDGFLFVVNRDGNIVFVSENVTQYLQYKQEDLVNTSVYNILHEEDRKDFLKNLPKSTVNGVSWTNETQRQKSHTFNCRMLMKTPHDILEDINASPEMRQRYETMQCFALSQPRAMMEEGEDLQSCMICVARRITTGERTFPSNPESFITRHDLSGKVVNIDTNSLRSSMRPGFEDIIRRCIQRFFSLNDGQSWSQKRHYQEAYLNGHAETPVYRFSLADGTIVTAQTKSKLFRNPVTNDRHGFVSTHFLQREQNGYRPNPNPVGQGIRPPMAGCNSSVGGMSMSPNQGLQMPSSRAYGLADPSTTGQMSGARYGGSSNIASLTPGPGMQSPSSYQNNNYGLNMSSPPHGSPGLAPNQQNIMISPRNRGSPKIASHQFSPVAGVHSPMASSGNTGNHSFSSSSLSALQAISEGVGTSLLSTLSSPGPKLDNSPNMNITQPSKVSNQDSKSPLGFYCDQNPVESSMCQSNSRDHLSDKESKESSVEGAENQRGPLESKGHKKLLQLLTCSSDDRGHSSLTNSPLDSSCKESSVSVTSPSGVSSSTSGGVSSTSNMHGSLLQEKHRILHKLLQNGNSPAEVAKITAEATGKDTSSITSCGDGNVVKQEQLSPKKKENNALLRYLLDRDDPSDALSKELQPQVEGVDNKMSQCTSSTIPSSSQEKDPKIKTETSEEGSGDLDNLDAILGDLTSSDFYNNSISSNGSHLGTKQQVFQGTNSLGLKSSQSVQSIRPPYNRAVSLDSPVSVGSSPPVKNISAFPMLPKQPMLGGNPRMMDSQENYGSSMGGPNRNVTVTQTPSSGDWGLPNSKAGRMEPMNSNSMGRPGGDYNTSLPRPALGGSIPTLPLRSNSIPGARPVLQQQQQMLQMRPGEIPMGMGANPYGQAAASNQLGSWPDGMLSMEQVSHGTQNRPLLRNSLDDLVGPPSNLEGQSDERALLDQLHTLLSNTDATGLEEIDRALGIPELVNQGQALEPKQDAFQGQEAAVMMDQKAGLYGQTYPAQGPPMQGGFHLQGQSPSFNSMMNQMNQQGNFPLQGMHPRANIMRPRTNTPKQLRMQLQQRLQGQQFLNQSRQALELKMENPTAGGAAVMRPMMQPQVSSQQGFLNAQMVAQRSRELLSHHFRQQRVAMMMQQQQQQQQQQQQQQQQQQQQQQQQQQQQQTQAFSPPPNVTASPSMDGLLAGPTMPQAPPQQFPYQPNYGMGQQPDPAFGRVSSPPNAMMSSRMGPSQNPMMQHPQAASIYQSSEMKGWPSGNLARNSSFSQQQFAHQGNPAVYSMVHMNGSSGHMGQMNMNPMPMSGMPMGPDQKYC
Chain of Luciferin 4-monooxygenase (P08659 whole entry): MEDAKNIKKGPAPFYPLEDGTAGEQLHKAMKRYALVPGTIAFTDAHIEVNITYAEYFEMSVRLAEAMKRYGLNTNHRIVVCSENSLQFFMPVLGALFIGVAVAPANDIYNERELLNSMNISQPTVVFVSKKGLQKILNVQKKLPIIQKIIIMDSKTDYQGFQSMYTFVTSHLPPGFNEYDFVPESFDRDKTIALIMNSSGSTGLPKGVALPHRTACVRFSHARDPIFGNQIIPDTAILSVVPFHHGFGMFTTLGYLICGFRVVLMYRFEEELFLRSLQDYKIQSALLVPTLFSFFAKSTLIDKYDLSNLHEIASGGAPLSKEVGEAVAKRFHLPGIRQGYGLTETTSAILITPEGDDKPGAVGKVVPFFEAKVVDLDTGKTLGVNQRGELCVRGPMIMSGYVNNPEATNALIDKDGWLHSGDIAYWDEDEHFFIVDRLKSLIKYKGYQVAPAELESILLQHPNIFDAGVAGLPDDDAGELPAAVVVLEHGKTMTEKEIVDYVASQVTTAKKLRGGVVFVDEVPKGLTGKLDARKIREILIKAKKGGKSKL
Chain of DNA dC->dU-editing enzyme APOBEC-3G (Q9HC16 whole entry): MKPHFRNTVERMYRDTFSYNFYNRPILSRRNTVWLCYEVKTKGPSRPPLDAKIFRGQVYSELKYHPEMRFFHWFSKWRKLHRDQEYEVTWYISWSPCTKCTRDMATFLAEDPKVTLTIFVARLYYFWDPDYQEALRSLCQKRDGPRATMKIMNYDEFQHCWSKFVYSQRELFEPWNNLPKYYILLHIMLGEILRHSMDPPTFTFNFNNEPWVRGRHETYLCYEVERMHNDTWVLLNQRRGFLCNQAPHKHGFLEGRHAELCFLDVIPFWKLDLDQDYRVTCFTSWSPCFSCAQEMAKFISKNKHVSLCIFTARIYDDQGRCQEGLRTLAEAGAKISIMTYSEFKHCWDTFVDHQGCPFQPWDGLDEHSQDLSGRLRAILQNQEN
Chain of X-box-binding protein 1 (P17861 whole entry): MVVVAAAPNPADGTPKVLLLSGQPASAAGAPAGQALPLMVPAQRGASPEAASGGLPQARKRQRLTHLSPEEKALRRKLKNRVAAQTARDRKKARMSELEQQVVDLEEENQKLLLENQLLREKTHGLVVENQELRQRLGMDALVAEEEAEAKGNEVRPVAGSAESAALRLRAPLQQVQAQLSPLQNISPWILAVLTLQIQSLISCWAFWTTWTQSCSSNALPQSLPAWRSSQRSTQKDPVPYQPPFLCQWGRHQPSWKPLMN

Cc1nc2c3cc(F)ccc3n(Cc3ccccc3)c2s1
EC50 (Hexokinase-1): 57.5 µM (inactive)
AC50 (INS1): > 260 µM (inactive)
EC50 (Hexokinase HKDC1): 39.2 µM (inactive)
AC50 [1]: 83.6 µM (active)

CCN1C(=O)/C(=C/C=C2/SCCN2C)SC1=S
EC50 (Troponin, cardiac muscle): 1.54 µM (active)
AC50 (Cytochrome P450 2C9): 4.47 µM (inconclusive)

Cc1cccc2cc3c(N)c(C#N)sc3nc12
AC50 [2]: 1.94 µM (active)
AC50 [3]: 5.1 µM (active)
Absolute IC50 (XBP1) (X-box-binding protein 1): 10 µM
EC50 [4]: > 195 µM (not active)
AC50 [5]: 6.95 µM (active)
Absolute IC50 (CHOP) [6]: 10 µM
EC50 [7]: > 99 µM (inactive)
AC50 [8]: 2.64 µM (active)
EC50 [9]: 43.1 µM (inactive)

O=C(CNCc1cccs1)Nc1ccc(S(=O)(=O)N2CCCCC2)cc1
EC50 (Troponin, cardiac muscle): > 71.5 µM (inactive)

C=CCn1c(-c2cc(Cl)ccc2OC)n[nH]c1=S
EC50 [10]: > 79.4 µM (not active)
EC50 [11]: 28.9 µM (not active)
EC50 [12]: > 112 µM (not active)
IC50 [13]: 8.82 µM (active)
EC50 [14]: 21.4 µM (inactive)

Cc1ccc(OCc2nnc(SCC(=O)O)n2N)cc1
IC50 (Coagulation factor XII): > 50 µM (inactive)

CCN1CCCC1CNC(=O)CSc1cc(=O)n(CC)c2ccccc12 (configuration not stated)
EC50 [10]: > 79.4 µM (not active)
EC50 [11]: > 79.4 µM (not active)
EC50 [14]: > 79.4 µM (inactive)

COC(=O)c1ccc(NC(=S)Nc2ccc(O)cc2)cc1
IC50 [15]: 43.1 µM (active)
IC50 (Coagulation factor XII): > 50 µM (inactive)
